Nine compounds from ChEMBL document CHEMBL1649221, “Novel genetic environment of the carbapenem-hydrolyzing beta-lactamase KPC-2 among Enterobacteriaceae in China” (2009) can be followed below.

By MIC is commonly meant the lowest concentration that inhibits growth of the organism.

In brackets after ≈: the same amount, converted by molar mass.

Assay type in all cases: functional
Assay [1] relates to Klebsiella pneumoniae. Briefly: Antimicrobial activity against Klebsiella pneumoniae PFGE clone A expressing beta-lactamase KPC-2 by Etest.
For assay [2], the system named is Klebsiella pneumoniae. Briefly: Antimicrobial activity against Klebsiella pneumoniae PFGE clone B expressing beta-lactamase KPC-2 by Etest.
In assay [3] the test system is Klebsiella pneumoniae. Briefly: Antimicrobial activity against Klebsiella pneumoniae PFGE clone C expressing beta-lactamase KPC-2 by Etest.
For assay [4], the system named is Klebsiella pneumoniae. Briefly: Antimicrobial activity against Klebsiella pneumoniae PFGE clone D expressing beta-lactamase KPC-2 by Etest.
For assay [5], the system named is Klebsiella pneumoniae. Nature of the assay: Antimicrobial activity against Klebsiella pneumoniae PFGE clone E expressing beta-lactamase KPC-2 by Etest.
Assay [6] relates to Klebsiella pneumoniae. Nature of the assay: Antimicrobial activity against Klebsiella pneumoniae PFGE clone F expressing beta-lactamase KPC-2 by Etest.
The subject of assay [7] is Klebsiella oxytoca. Nature of the assay: Antimicrobial activity against Klebsiella oxytoca expressing beta-lactamase KPC-2 by Etest.
The subject of assay [8] is Enterobacter cloacae. Nature of the assay: Antimicrobial activity against Enterobacter cloacae expressing beta-lactamase KPC-2 by Etest.
The test system of assay [9] is Klebsiella pneumoniae. Nature of the assay: Antimicrobial activity against Klebsiella pneumoniae PFGE clone A expressing beta-lactamase KPC-2 by Etest in presence of beta-lactamase inhibitor Tazobactam.
The test system of assay [10] is Klebsiella pneumoniae. Briefly: Antimicrobial activity against Klebsiella pneumoniae PFGE clone B expressing beta-lactamase KPC-2 by Etest in presence of beta-lactamase inhibitor Tazobactam.
The test system of assay [11] is Klebsiella pneumoniae. Briefly: Antimicrobial activity against Klebsiella pneumoniae PFGE clone C expressing beta-lactamase KPC-2 by Etest in presence of beta-lactamase inhibitor Tazobactam.
Assay [12] concerns Klebsiella pneumoniae. Nature of the assay: Antimicrobial activity against Klebsiella pneumoniae PFGE clone D expressing beta-lactamase KPC-2 by Etest in presence of beta-lactamase inhibitor Tazobactam.
For assay [13], the system named is Klebsiella pneumoniae. Briefly: Antimicrobial activity against Klebsiella pneumoniae PFGE clone E expressing beta-lactamase KPC-2 by Etest in presence of beta-lactamase inhibitor Tazobactam.
In assay [14] the test system is Klebsiella pneumoniae. Nature of the assay: Antimicrobial activity against Klebsiella pneumoniae PFGE clone F expressing beta-lactamase KPC-2 by Etest in presence of beta-lactamase inhibitor Tazobactam.
Assay [15] relates to Klebsiella oxytoca. Briefly: Antimicrobial activity against Klebsiella oxytoca expressing beta-lactamase KPC-2 by Etest in presence of beta-lactamase inhibitor Tazobactam.
For assay [16], the system named is Enterobacter cloacae. Nature of the assay: Antimicrobial activity against Enterobacter cloacae expressing beta-lactamase KPC-2 by Etest in presence of beta-lactamase inhibitor Tazobactam.

Take `C[C@@H](O)[C@H]1C(=O)N2C(C(=O)O)=C(S[C@@H]3CN[C@H](C(=O)N(C)C)C3)[C@H](C)[C@H]12` [MEROPENEM]: the MIC in the assay on Klebsiella pneumoniae [1] is over 32 mg/L; against Klebsiella pneumoniae [2], over 32 mg/L; against Klebsiella pneumoniae [3], over 32 mg/L; in the assay on Klebsiella pneumoniae [4], over 2 mg/L; in the assay on Klebsiella pneumoniae [5] it was over 16 mg/L; in the assay on Klebsiella pneumoniae [6] it was over 32 mg/L. Besides, the MIC against Klebsiella oxytoca [7] and in the assay with Enterobacter cloacae [8] was over 32 mg/L throughout.

For the compound `CC(C)(O/N=C(\C(=O)N[C@@H]1C(=O)N2C(C(=O)[O-])=C(C[n+]3ccccc3)CS[C@H]12)c1csc(N)n1)C(=O)O` [CEFTAZIDIME], the minimum inhibitory concentration (MIC) against Klebsiella pneumoniae [1] is over 256 mg/L; in the assay with Klebsiella pneumoniae [2], over 128 mg/L; against Klebsiella pneumoniae [3] it was over 256 mg/L; in the assay with Klebsiella pneumoniae [4] it was over 32 mg/L; against Klebsiella pneumoniae [5], over 32 mg/L; with Klebsiella pneumoniae [6], over 256 mg/L. Also, the figures for the MIC in the assay with Klebsiella oxytoca [7] and in the assay on Enterobacter cloacae [8] were 128 mg/L (≈ 234 µM) and over 256 mg/L, respectively.

Turning to `C[C@@H](O)[C@H]1C(=O)N2C(C(=O)O)=C(SCCNC=N)C[C@H]12` [IMIPENEM ANHYDROUS], the MIC was over 32 mg/L against Klebsiella pneumoniae [1]; over 16 mg/L with Klebsiella pneumoniae [2]; over 32 mg/L with Klebsiella pneumoniae [3]; over 2 mg/L in the assay on Klebsiella pneumoniae [4]; over 16 mg/L in the assay with Klebsiella pneumoniae [5]; over 32 mg/L against Klebsiella pneumoniae [6]. The minimal inhibitory concentration (MIC) with Klebsiella oxytoca [7] and in the assay with Enterobacter cloacae [8] was over 32 mg/L each time.

Take `CN(C)c1cc(NC(=O)CNC(C)(C)C)c(O)c2c1C[C@H]1C[C@H]3[C@H](N(C)C)C(O)=C(C(N)=O)C(=O)[C@@]3(O)C(O)=C1C2=O` [TIGECYCLINE]: the minimal inhibitory concentration (MIC) in the assay with Klebsiella pneumoniae [1] is 2 mg/L (≈ 3.41 µM); against Klebsiella pneumoniae [2], 0.5 mg/L (≈ 0.854 µM); against Klebsiella pneumoniae [3] it was 0.5 mg/L (≈ 0.854 µM); against Klebsiella pneumoniae [4], 0.5 mg/L (≈ 0.854 µM); against Klebsiella pneumoniae [5], 1 mg/L (≈ 1.71 µM); in the assay with Klebsiella pneumoniae [6], 0.38 mg/L (≈ 0.649 µM). For the same compound, the minimum inhibitory concentration (MIC) with Klebsiella oxytoca [7] and in the assay on Enterobacter cloacae [8] was 2 mg/L (≈ 3.41 µM) in each case.

Take `CO[C@@]1(NC(=O)Cc2cccs2)C(=O)N2C(C(=O)O)=C(COC(N)=O)CS[C@@H]21` [CEFOXITIN]: the minimum inhibitory concentration (MIC) was over 256 mg/L against Klebsiella pneumoniae [1]; over 128 mg/L in the assay on Klebsiella pneumoniae [2]; over 128 mg/L with Klebsiella pneumoniae [3]; over 64 mg/L against Klebsiella pneumoniae [4]; 32 mg/L (≈ 74.9 µM) against Klebsiella pneumoniae [5]; over 32 mg/L in the assay on Klebsiella pneumoniae [6]. Also, the minimum inhibitory concentration (MIC) against Klebsiella oxytoca [7] and in the assay on Enterobacter cloacae [8] was over 256 mg/L throughout.

Consider `C[C@@H](O)[C@H]1C(=O)N2C(C(=O)O)=C(S[C@@H]3CN[C@H](C(=O)Nc4cccc(C(=O)O)c4)C3)[C@H](C)[C@H]12`, for which the minimal inhibitory concentration (MIC) in the assay with Klebsiella pneumoniae [1] is over 32 mg/L; against Klebsiella pneumoniae [2] it was over 32 mg/L; in the assay on Klebsiella pneumoniae [3], over 32 mg/L; against Klebsiella pneumoniae [4] it was over 16 mg/L; in the assay with Klebsiella pneumoniae [5], over 32 mg/L; with Klebsiella pneumoniae [6], over 32 mg/L. The minimum inhibitory concentration (MIC) is over 16 mg/L against Klebsiella oxytoca [7] and over 32 mg/L against Enterobacter cloacae [8].

Take COLISTIN: the MIC against Klebsiella pneumoniae [1] is 0.25 mg/L; against Klebsiella pneumoniae [2], 0.5 mg/L; against Klebsiella pneumoniae [3], 0.5 mg/L; with Klebsiella pneumoniae [4], 0.5 mg/L; with Klebsiella pneumoniae [5], 0.5 mg/L; against Klebsiella pneumoniae [6] it was 0.5 mg/L. Further, the MIC came to 1 mg/L against Klebsiella oxytoca [7] and 0.5 mg/L with Enterobacter cloacae [8].

Regarding `NCC[C@H](O)C(=O)N[C@@H]1C[C@H](N)[C@@H](O[C@H]2O[C@H](CN)[C@@H](O)[C@H](O)[C@H]2O)[C@H](O)[C@H]1O[C@H]1O[C@H](CO)[C@@H](O)[C@H](N)[C@H]1O` [AMIKACIN], the minimum inhibitory concentration (MIC) with Klebsiella pneumoniae [1] was over 256 mg/L; in the assay on Klebsiella pneumoniae [2] it was over 1 mg/L; in the assay on Klebsiella pneumoniae [3], over 1 mg/L; with Klebsiella pneumoniae [4], over 256 mg/L; with Klebsiella pneumoniae [5], over 1 mg/L; against Klebsiella pneumoniae [6], 2 mg/L (≈ 3.42 µM). Besides, the MIC against Klebsiella oxytoca [7] is 2 mg/L (≈ 3.42 µM); against Enterobacter cloacae [8] it was over 256 mg/L.

As for `CCN1CCN(C(=O)N[C@@H](C(=O)N[C@@H]2C(=O)N3[C@@H]2SC(C)(C)[C@@H]3C(=O)O)c2ccccc2)C(=O)C1=O` [PIPERACILLIN], the MIC with Klebsiella pneumoniae [9], in the assay with Klebsiella pneumoniae [10], in the assay with Klebsiella pneumoniae [11], in the assay with Klebsiella pneumoniae [12], in the assay with Klebsiella pneumoniae [13] and with Klebsiella pneumoniae [14] was over 256 mg/L throughout. The minimal inhibitory concentration (MIC) in the assay on Klebsiella oxytoca [15] and with Enterobacter cloacae [16] was over 256 mg/L throughout.
